# Data as given in ChEMBL document CHEMBL5030549, “Design, synthesis and biological evaluation of new thiazole scaffolds as potential TRPM8 antagonists” (Bioorg Med Chem Lett, 2021).
# Activity calls are given as the source filed them. The rule behind the calls is not given here.
# Tests used:
# [1] = molecular target: T1, Transient receptor potential cation channel subfamily M member 8 (Homo sapiens, UniProt Q7Z2W7); test: Antagonist activity at recombinant human TRPM8 transfected in HEK293 cells assessed as assessed as inhibition of icilin-induced intracellular calcium flux; assay type: cell-based
# Target sequence in this assay (Q7Z2W7 whole entry): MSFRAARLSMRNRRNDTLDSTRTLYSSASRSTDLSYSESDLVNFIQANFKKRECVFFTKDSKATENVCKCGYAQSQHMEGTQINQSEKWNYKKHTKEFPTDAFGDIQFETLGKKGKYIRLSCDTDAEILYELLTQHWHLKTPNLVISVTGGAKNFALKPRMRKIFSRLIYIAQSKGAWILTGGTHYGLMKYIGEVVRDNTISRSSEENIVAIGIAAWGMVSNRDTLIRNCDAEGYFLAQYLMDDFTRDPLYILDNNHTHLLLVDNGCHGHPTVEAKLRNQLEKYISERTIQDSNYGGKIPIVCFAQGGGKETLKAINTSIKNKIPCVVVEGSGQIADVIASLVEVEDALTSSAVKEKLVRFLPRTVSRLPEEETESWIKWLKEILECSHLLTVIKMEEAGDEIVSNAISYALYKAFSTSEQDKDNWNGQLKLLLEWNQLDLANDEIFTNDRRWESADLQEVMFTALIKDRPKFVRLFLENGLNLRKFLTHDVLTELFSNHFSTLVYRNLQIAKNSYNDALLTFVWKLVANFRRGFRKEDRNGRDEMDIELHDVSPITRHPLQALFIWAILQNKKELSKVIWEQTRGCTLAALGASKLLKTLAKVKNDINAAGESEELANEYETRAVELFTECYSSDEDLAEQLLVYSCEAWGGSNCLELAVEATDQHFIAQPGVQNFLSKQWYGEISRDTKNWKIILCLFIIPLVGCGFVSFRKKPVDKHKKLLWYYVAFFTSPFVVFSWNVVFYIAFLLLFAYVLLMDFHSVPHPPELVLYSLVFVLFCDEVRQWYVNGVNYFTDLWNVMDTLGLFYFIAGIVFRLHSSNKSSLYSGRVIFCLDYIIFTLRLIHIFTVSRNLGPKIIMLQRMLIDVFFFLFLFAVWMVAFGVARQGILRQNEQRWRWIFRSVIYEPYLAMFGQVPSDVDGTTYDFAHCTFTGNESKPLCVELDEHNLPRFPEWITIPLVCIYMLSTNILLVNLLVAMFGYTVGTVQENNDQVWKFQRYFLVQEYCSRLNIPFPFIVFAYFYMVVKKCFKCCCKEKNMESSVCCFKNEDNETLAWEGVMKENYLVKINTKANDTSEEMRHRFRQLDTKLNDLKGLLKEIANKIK
# [2] = molecular target: Transient receptor potential cation channel subfamily V member 1 (Homo sapiens) (UniProt Q8NER1); test: Antagonist activity at human TRPV1 inhibition of capsaicin-induced channel activation at <= 30 uM; conditions: dose microM <=30
# [3] = Metabolic stability in human liver microsomes assessed as half life in presence of NADPH; assay type: ADME, Microsome
# [4] = Metabolic stability in human liver microsomes assessed as intrinsic clearance in presence of NADPH; assay type: ADME, Microsome
# HepG2 = test: Cytotoxicity against human HepG2 cells assessed as reduction in cell viability at 100 uM; assay type: cell-based; conditions: hepg2, 100 µM
# [5] = molecular target: T1, Transient receptor potential cation channel subfamily M member 8; test: Antagonist activity at recombinant human TRPM8 transfected in HEK293 cells assessed as assessed as inhibition of icilin-induced intracellular calcium flux at 0.5 uM relative to control; assay type: cell-based; conditions: filed as antagonist
# Target sequence in this assay (Q7Z2W7 whole entry, looked up): as the sequence (Q7Z2W7 whole entry) above
# Transient receptor potential cation channel subfamily V member 1 (Homo sapiens), sequence (Q8NER1 whole entry): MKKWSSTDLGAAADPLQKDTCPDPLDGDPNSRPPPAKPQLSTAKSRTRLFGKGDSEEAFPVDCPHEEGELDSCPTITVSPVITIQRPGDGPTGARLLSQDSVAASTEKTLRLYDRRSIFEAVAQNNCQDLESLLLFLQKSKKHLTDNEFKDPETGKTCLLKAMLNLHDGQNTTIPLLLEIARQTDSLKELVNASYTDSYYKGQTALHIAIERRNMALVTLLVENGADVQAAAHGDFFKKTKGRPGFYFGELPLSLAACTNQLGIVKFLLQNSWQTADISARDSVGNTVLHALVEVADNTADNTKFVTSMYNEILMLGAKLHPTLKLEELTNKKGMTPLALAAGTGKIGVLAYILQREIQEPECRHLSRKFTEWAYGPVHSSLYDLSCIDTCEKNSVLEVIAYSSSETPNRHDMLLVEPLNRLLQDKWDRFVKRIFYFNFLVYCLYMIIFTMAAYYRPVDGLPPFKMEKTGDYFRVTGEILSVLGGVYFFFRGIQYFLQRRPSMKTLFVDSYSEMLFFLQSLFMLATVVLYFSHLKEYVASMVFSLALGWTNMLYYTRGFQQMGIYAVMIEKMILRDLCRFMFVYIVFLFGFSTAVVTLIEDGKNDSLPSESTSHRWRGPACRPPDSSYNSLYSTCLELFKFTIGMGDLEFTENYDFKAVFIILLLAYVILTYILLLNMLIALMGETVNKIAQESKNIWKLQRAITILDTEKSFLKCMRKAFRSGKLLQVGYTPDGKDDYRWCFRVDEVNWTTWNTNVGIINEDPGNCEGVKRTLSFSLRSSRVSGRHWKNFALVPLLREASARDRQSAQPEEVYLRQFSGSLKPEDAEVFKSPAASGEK
Activity [2],SMILES,also measured
inactive,CCOC(=O)/C=C/Oc1nc(-c2ccc(C)cc2)sc1C(=O)OCC,IC50 [1]: 1130 nM; half-life [3]: < 10 min
inactive,O=C(O)CCCc1cc2nc(-c3cccc(F)c3)sc2c(=O)[nH]1,
inactive,O=C(O)CCCc1cc2nc(-c3cccc(F)c3)sc2c(=O)o1,
inactive,CCOC(=O)c1sc(-c2cccc(F)c2)nc1C#CCCCC(=O)O,IC50 [1]: 4060 nM; CLH [4]: 0.13 mL/min/g; Activity (HepG2): Non-Toxic
,COc1cc(CN(CCN)C(=O)c2cccs2)ccc1OCc1ccccc1,inhibition [5]: 98.3%
inactive,CCOC(=O)CCCC#Cc1nc(-c2cccc(F)c2)sc1C(=O)OCC,
inactive,CCOC(=O)CCCc1[nH]nnc1-c1nc(-c2cccc(F)c2)sc1C(=O)OCC,
